Legend:
[1] = tested on: mice; test: Acute oral toxicity of Calebin A; type: in vivo
Procedure: No mortality was observed up to 2000 mg/kg p.o. in mice up to two weeks of observation.

[2] = tested on: Fully differentiated adipocytes; test: Lipolysis (glycerol release) in fully differentiated adipocytes; type: cell-based, Mouse; conditions: fully differentiated adipocytes (8 days)
Procedure: Fully differentiated adipocytes (8 days) previously untreated with Calebin A as described in procedural steps outlined in Example IV were treated with Calebin A at concentrations of 5-30 μM. Lipolysis was linked to the breakdown of lipids into glycerol that was released into the cell culture medium and detected thereof. […] Thus, in another most preferred embodiment, the present invention relates to a method of inducing lipolysis in mammalian adipocytes, said method comprising the step of treating mammalian adipocytes with varying concentrations of Calebin A to bring about the effect of dose dependant lipolysis in said adipocytes. […] Epididymal fat pads were dissected and fixed in 10% buffered formalin for at least 24 hours, then dehydrated with a sequence of ethanol solutions and processed for embedding in paraffin. Sections of 5-6 μm in thickness were cut, de-paraffinized, rehydrated, stained with haematoxylin & eosin (H&E) and subjected to photomicroscopic assessment. Adipocyte size was determined using a Nikon light microscope (Japan) equipped with an ocular micrometer at 200× magnification in 10 random fields per section. […]

COc1cc(/C=C/C(=O)COC(=O)/C=C/c2ccc(O)c(OC)c2)ccc1O [Calebin A]
Autonomic Nervous System: Atexia ([1]; mouse, in vivo, po): Atexia = Nil
Autonomic Nervous System: Diarrhea ([1]; mouse, in vivo, po): Diarrhea = Nil
Autonomic Nervous System: Motor Activity ([1]; mouse, in vivo, po): Motor Activity = Normal
Autonomic Nervous System: Respiration Rate ([1]; mouse, in vivo, po): Respiration Rate = Normal
Central Nervous System: Clonic Convulsions ([1]; mouse, in vivo, po): Clonic Convulsions = Nil
Central Nervous System: Excitation ([1]; mouse, in vivo, po): Excitation = Nil
Central Nervous System: Motor Activity ([1]; mouse, in vivo, po): Motor Activity = Nil
Central Nervous System: Tonic Convulsion ([1]; mouse, in vivo, po): Tonic Convulsion = Nil
Central Nervous System: Tremors ([1]; mouse, in vivo, po): Tremors = Nil
Dermal: Blanching ([1]; mouse, in vivo, po): Blanching = Nil
Dermal: Cyanosis ([1]; mouse, in vivo, po): Cyanosis = Nil
Dermal: Hyperaemia ([1]; mouse, in vivo, po): Hyperaemia = Nil
Food and Water (Intake and Excretion): Fecal Output ([1]; mouse, in vivo, po): Fecal Output = Normal
Food and Water (Intake and Excretion): Urine Output ([1]; mouse, in vivo, po): Urine Output = Normal
General Behaviour: Aggression ([1]; mouse, in vivo, po): Aggression = Nil
General Behaviour: Fear ([1]; mouse, in vivo, po): Fear = Nil
General Behaviour: General Locomotor Activity ([1]; mouse, in vivo, po): Normal
General Behaviour: General Movement ([1]; mouse, in vivo, po): General Movement = Normal
General Behaviour: Passive ([1]; mouse, in vivo, po): Passive = Nil
General Parameters: Diarrhea ([1]; mouse, in vivo, po): Diarrhea = Nil
General Parameters: Muscular Weakness ([1]; mouse, in vivo, po): Muscular Weakness = Nil
General Parameters: Pilo Erection ([1]; mouse, in vivo, po): Pilo Erection = Nil
General Parameters: Salivation ([1]; mouse, in vivo, po): Salivation = Nil
Reflexes: Corneal ([1]; mouse, in vivo, po): Corneal = No effect
Reflexes: Pinnal ([1]; mouse, in vivo, po): Pinnal = No effect
Respiratory System: Respiration Depth ([1]; mouse, in vivo, po): Respiration Depth = Normal
Respiratory System: Respiration Rate ([1]; mouse, in vivo, po): Respiration Rate = Normal
mortality ([1]; up to 2000 mg/kg p.o., up to two weeks of observation): No mortality
release of glycerol into the medium (lipolysis) ([2]; 30 μM): Glycerol was detected
release of glycerol into the medium (lipolysis) ([2]; 5-20 μM): did not bring about the release of glycerol
